Test [1] deals with T1, HLE (human leucocyte elastase) (Homo sapiens, UniProt P08246).
T1 sequence (P08246 30-267): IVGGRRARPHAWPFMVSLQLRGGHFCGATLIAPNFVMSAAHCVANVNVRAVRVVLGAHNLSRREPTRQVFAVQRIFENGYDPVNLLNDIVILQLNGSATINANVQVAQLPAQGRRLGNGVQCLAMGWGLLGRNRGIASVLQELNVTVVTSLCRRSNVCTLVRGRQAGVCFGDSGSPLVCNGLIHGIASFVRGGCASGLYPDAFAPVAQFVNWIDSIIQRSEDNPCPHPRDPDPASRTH
As to the kind of experiment: Measurement of HLE inhibition potency (kinact/Ki). The settings on record: measured for non-radioactive iodine-labelled compounds and unlabelled chelate conjugates. It counts as biochemical. Here is the method: Inhibitor potency against HLE is described by the parameter kinact/Ki as previously reported [Knight et al., Biochem., 8160-8170, (1992)]. Lyophilised enzyme was reconstituted with TrisHCl buffer, 100 mM, 0.5M NaCl at 0.05 units/ml (approximately nanomolar concentration) in a final reaction volume of 1 ml to which was added methoxysucc-ala-ala-pro-val-pNA substrate (1 mM) and the elastase inhibitor dissolved in DMSO. The reaction was monitored by detecting the change of absorbance at 410 nm (hydrolysis of the substrate releasing p-nitroaniline) over a timescale of 25 minutes. Values of kinact/Ki were estimated according to the Knight et al method.

The test system of test [2] is isolated human white cells (granulocytes; monocytes + lymphocytes). Description: In vitro cell uptake in isolated human white cells. The class given is cell-based. Conditions: for selectivity for granulocytes over a mixture of monocytes/lymphocytes: approximately equivalent numbers of monocytes/lymphocytes and granulocytes present; for % uptake in Gran. (granulocytes), WHITE CELLS / % uptake in Mon. (monocytes + lymphocytes), WHITE CELLS: isolated human white cells, 30 minutes at 37° C., radiolabelled compound. Here is the method: Fresh blood (30-120 ml) was anticoagulated with 1.5% ACD solution and sedimented by addition of 2 ml Hespan per 10 ml blood for 90 minutes at room temperature. The leucocyte rich platelet rich plasma supernatant was removed and centrifuged at 150 g for 5 minutes, yielding a leucocyte rich pellet and platelet rich plasma (PRP). The PRP was centrifuged at 4000 g to pellet the platelets leaving a cell free plasma (CFP). The leucocyte pellet was resuspended in a 50:50 mixture of HBSS and CFP and incubated with the radioactive compound for 30 minutes at 37° C. Free radioactive material was then removed from the cells by addition of an excess of HBSS:CFP and centrifugation of the leucocytes at 150 g for 7 minutes. The supernatant and cell pellet were taken for radioactive counting for calculation of percentage cell uptake. The distribution of radioactivity within the cell pellet was assessed by separation of the cell types using Percoll density gradient centrifugation (38%, 55% and 73% Percoll in HBSS step gradients). The residual plasma and free activity was recovered from the top of the gradient, the mononuclear cells (lymphocytes and monocytes) from the interface between 38% and 55%, and the granulocytes were recovered from the interface between 55% and 73% Percoll.

In test [3] the test system is mixed human red/white cells (granulocytes, monocytes + lymphocytes, erythrocytes). As to the kind of experiment: In vitro cell uptake in mixed human red/white cells. It counts as cell-based. Conditions: radiolabelled compound. Here is the method:
The radioactive compound was also incubated with an isolated leucocyte preparation to which an erythrocyte fraction had been added back. The packed erythrocytes obtained after blood sedimentation were washed twice with HBSS and then resuspended in their original blood volume with HBSS. Leucocytes obtained from 30 ml blood were resuspended in 0.5 ml erythrocyte suspension and 0.5 ml CFP. The cell suspension was then incubated with compound as above. Analysis of the distribution of activity in the cell pellet in the presence of red blood cells was carried out using Ficoll-Hypaque discontinuous density gradients (densities 1.04, 1.077 and 1.119 g/ml Histopaque steps).

In test [4] the test system is human whole blood (granulocytes, monocytes + lymphocytes, erythrocytes). Description: In vitro cell uptake in human whole blood. It counts as cell-based. Conditions: 37° C. for 1 hour, radiolabelled compound. Here is the method: The radioactive compound was added to 1 ml whole blood anticoagulated with ACD and incubated at 37° C. for 1 hour. The blood was diluted with HBSS and the cellular component separated by centrifugation. Distribution of activity within the cellular pellet was assessed by separation of cell fractions on Ficoll-Hypaque gradients as above.

With `CCC1(CC)C(=O)N(C(=O)NCc2ccc(C(=O)NCC(C)(CNC(C)(C)C(C)=NO)CNC(C)(C)C(C)=NO)cc2)C1Oc1ccc(C(=O)N2CCN(C)CC2)cc1` (racemic) [Compound 38, Conjugate Between Chelate, 3,3,6,9,9-Pentamethyl-6-aminomethyl-4,8-diazaundecane-2,10-dionedioxime and 4-[4-[[(4-Methyl)piperazin-1-yl]carbonyl]phenoxy]-1-[(4-carboxy)benzylaminocarbonyl]-3,3-diethyl-2-azetidinone], in test [1], the Potency (1/(M·s)), kinact/Ki turned out to be 58500 M⁻¹ s⁻¹. Further, in test [2], the “selectivity for granulocytes over a mixture of monocytes/lymphocytes” value (“selectivity … of monocytes/lymphocytes” for short) is given as “some degree of selectivity for granulocytes”; the “% uptake in Gran. (granulocytes), WHITE CELLS” value amounted to 75.5%; the “% uptake in Mon. (monocytes + lymphocytes), WHITE CELLS” value turned out to be 8.5%. Also, in test [3], the “% uptake in Eryth. (erythrocytes), WHITE AND RED CELLS” value came out at 28.4%; the “% uptake in Gran. (granulocytes), WHITE AND RED CELLS” value turned out to be 32.5%; the “% uptake in Mon. (monocytes + lymphocytes), WHITE AND RED CELLS” value is given as 6.7%.

Regarding `CCC1(CC)C(=O)N(C(=O)NCCC(=O)NCC(C)(CNC(C)(C)C(C)=NO)CNC(C)(C)C(C)=NO)C1Oc1ccc(C(=O)N2CCN(C)CC2)cc1` (racemic) [Compound 42, Conjugate Between Chelate, 3,3,6,9,9-pentamethyl-6-aminomethyl-4,8-diazaundecane-2,10-dionedioxime and 4-[4-[[(4-Methyl)piperazin-1-yl]carbonyl]phenoxy]-1-[(2-carboxy)ethylaminocarbonyl]-3,3-diethyl-2-azetidinone], in test [1], the Potency (1/(M·s)), kinact/Ki was 1400 M⁻¹ s⁻¹. Also, in test [2], the “selectivity … of monocytes/lymphocytes” value is listed as “some degree of selectivity for granulocytes”; the “% uptake in Gran. (granulocytes), WHITE CELLS” value stood at 8.4%; the “% uptake in Mon. (monocytes + lymphocytes), WHITE CELLS” value is 1.2%. Also, in test [3], the “% uptake in Eryth. (erythrocytes), WHITE AND RED CELLS” value was 18.9%; the “% uptake in Gran. (granulocytes), WHITE AND RED CELLS” value was 2.5%; the “% uptake in Mon. (monocytes + lymphocytes), WHITE AND RED CELLS” value stood at 6.9%.

Take `CCC1(CC)C(=O)N(C(=O)NCCCCCC(=O)NCC(C)(CNC(C)(C)C(C)=NO)CNC(C)(C)C(C)=NO)C1Oc1ccc(C(=O)N2CCN(C)CC2)cc1` (racemic) [Compound 48, Conjugate Between Chelate, 3,3,6,9,9-pentamethyl-6-aminomethyl-4,8-diazaundecane-2,10-dionedioxime and 4-[4-[[(4-Methyl)piperazin-1-yl]carbonyl]phenoxy]-1-[(5-carboxy)pentylaminocarbonyl]-3,3-diethyl-2-azetidinone]: in test [1], the Potency (1/(M·s)), kinact/Ki was determined as 5500 M⁻¹ s⁻¹. In addition, in test [4], the “% uptake in Eryth. (erythrocytes), WHOLE BLOOD” value worked out at 9.17%; the “% uptake in Gran. (granulocytes), WHOLE BLOOD” value is recorded as 10.6%; the “% uptake in Mon. (monocytes + lymphocytes), WHOLE BLOOD” value was 22.7%. For the same molecule, in test [2], the “selectivity … of monocytes/lymphocytes” value was “some degree of selectivity for granulocytes”; the “% uptake in Gran. (granulocytes), WHITE CELLS” value amounted to 64.5%; the “% uptake in Mon. (monocytes + lymphocytes), WHITE CELLS” value was 7.3%. In test [3], the “% uptake in Eryth. (erythrocytes), WHITE AND RED CELLS” value is listed as 38.7%; the “% uptake in Gran. (granulocytes), WHITE AND RED CELLS” value is on record as 16.2%; the “% uptake in Mon. (monocytes + lymphocytes), WHITE AND RED CELLS” value turned out to be 7.2%.

Turning to `CCC1(CC)C(=O)N(C(=O)NCc2ccccc2)C1Oc1ccc(C(=O)NCC(C)(CNC(C)(C)C(C)=NO)CNC(C)(C)C(C)=NO)cc1` (racemic) [Compound 49, Conjugate Between Chelate, 3,3,6,9,9-pentamethyl-6-aminomethyl-4,8-diazaundecane-2,10-dionedioxime and 4-[(4-carboxy)phenoxy]-1-[benzylaminocarbonyl]-3,3-diethyl-2-azetidinone], in test [1], the Potency (1/(M·s)), kinact/Ki is 20000 M⁻¹ s⁻¹. Moreover, in test [4], the “% uptake in Eryth. (erythrocytes), WHOLE BLOOD” value was 14.3%; the “% uptake in Gran. (granulocytes), WHOLE BLOOD” value was 6.9%; the “% uptake in Mon. (monocytes + lymphocytes), WHOLE BLOOD” value is listed as 24.6%. Besides, in test [2], the “selectivity … of monocytes/lymphocytes” value is “some degree of selectivity for granulocytes”; the “% uptake in Gran. (granulocytes), WHITE CELLS” value came to 47.3%; the “% uptake in Mon. (monocytes + lymphocytes), WHITE CELLS” value is recorded as 10.1%. Besides, in test [3], the “% uptake in Eryth. (erythrocytes), WHITE AND RED CELLS” value amounted to 18.0%; the “% uptake in Gran. (granulocytes), WHITE AND RED CELLS” value is 17.5%; the “% uptake in Mon. (monocytes + lymphocytes), WHITE AND RED CELLS” value came to 13.9%.

On to `CCC1(CC)C(=O)N(C(=O)NCCC(=O)NCCN(CCNC(C)(C)C(C)=NO)CCNC(C)(C)C(C)=NO)C1Oc1ccc(C(=O)N2CCN(C)CC2)cc1` (racemic) [Compound 51, Conjugate Between Chelate, 3,3,11,11-Tetramethyl-7-aminomethyl-4,7,10-triazatridecane-2,12-dionedioxime and 4-[4-[[(4-Methyl)piperazin-1-yl]carbonyl]phenoxy]-1-[(2-carboxy)ethylaminocarbonyl]-3,3-diethyl-2-azetidinone], for which the Potency (1/(M·s)), kinact/Ki in test [1] amounted to 2500 M⁻¹ s⁻¹. Besides, in test [4], the “% uptake in Eryth. (erythrocytes), WHOLE BLOOD” value is reported as 0.8%; the “% uptake in Gran. (granulocytes), WHOLE BLOOD” value came out at 1.7%; the “% uptake in Mon. (monocytes + lymphocytes), WHOLE BLOOD” value stood at 28.7%. Moreover, in test [2], the “selectivity … of monocytes/lymphocytes” value is listed as “some degree of selectivity for granulocytes”; the “% uptake in Gran. (granulocytes), WHITE CELLS” value was 3.9%; the “% uptake in Mon. (monocytes + lymphocytes), WHITE CELLS” value is on record as 0.4%. Moreover, in test [3], the “% uptake in Eryth. (erythrocytes), WHITE AND RED CELLS” value is 11.2%; the “% uptake in Gran. (granulocytes), WHITE AND RED CELLS” value worked out at 1.9%; the “% uptake in Mon. (monocytes + lymphocytes), WHITE AND RED CELLS” value amounted to 13.4%.

In the case of `CCC1(CC)C(=O)N(C(=O)NCc2ccccc2)C1Oc1ccc(C(=O)NCCN(CCNC(C)(C)C(C)=NO)CCNC(C)(C)C(C)=NO)cc1` (racemic) [Compound 52, Conjugate Between Chelate, 3,3,11,11-tetramethyl-7-aminomethyl-4,7,10-triazatridecane-2,12-dionedioxime and 4-[(4-carboxy)phenoxy]-1-[benzylaminocarbonyl]-3,3-diethyl-2-azetidinone], the Potency (1/(M·s)), kinact/Ki in test [1] was determined as 7800 M⁻¹ s⁻¹. Moreover, in test [4], the “% uptake in Eryth. (erythrocytes), WHOLE BLOOD” value was 37.4%; the “% uptake in Gran. (granulocytes), WHOLE BLOOD” value came to 9.1%; the “% uptake in Mon. (monocytes + lymphocytes), WHOLE BLOOD” value stood at 10.9%. Besides, in test [2], the “selectivity … of monocytes/lymphocytes” value is recorded as “some degree of selectivity for granulocytes”; the “% uptake in Gran. (granulocytes), WHITE CELLS” value was determined as 1.9%; the “% uptake in Mon. (monocytes + lymphocytes), WHITE CELLS” value is 0.8%. For the same molecule, in test [3], the “% uptake in Eryth. (erythrocytes), WHITE AND RED CELLS” value was 7.1%; the “% uptake in Gran. (granulocytes), WHITE AND RED CELLS” value is on record as 1.8%; the “% uptake in Mon. (monocytes + lymphocytes), WHITE AND RED CELLS” value is on record as 8.2%.

For the molecule `CCC1(CC)C(=O)N(C(=O)NCc2ccc(I)cc2)C1Oc1ccc(C(=O)N2CCN(C)CC2)cc1` (single isomer, unassigned) [Compound 4b], in test [1], the Potency (1/(M·s)), kinact/Ki was determined as 1350 M⁻¹ s⁻¹. Further, in test [2], the “selectivity … of monocytes/lymphocytes” value is “some degree of selectivity for granulocytes”; the “% uptake in Gran. (granulocytes), WHITE CELLS” value is reported as 4.8%; the “% uptake in Mon. (monocytes + lymphocytes), WHITE CELLS” value is 0.9%. For the same molecule, in test [3], the “% uptake in Eryth. (erythrocytes), WHITE AND RED CELLS” value is given as 1.6%; the “% uptake in Gran. (granulocytes), WHITE AND RED CELLS” value came out at 3.3%; the “% uptake in Mon. (monocytes + lymphocytes), WHITE AND RED CELLS” value is reported as 3.8%.

As to `CCC1(CC)C(=O)N(C(=O)NCCc2cc(I)c(O)c(I)c2)C1S(=O)(=O)CCOC` (centres unmarked) [Compound 17, 4-(2-Methoxyethylsulfonyl)-1-[(3,5-diiodo)(4-hydroxy)phenylethylaminocarbonyl]-3,3-diethyl-2-azetidinone], the kinact/KI in test [1] (read-out: Potency (M/sec), kinact/Ki) came to 600 M⁻¹ s⁻¹. In test [2], the “selectivity … of monocytes/lymphocytes” value is “some degree of selectivity for granulocytes”; the “% uptake in Gran. (granulocytes), WHITE CELLS” value is 0.4%; the “% uptake in Mon. (monocytes + lymphocytes), WHITE CELLS” value amounted to 0.0%.

(Values after patent publication US6375926B1, “Labelled elastase inhibitors” (Amersham International PLC, priority 1996, dated 2002).)
